This is an account of results in patent publication US9617276B2, “Compounds and methods for treating AIDS and HIV infections” (priority 2009, dated 2017).

The subject of data set [1] is HIV-1. The conditions noted are these: prior inhibitors; read-out: ID50 (the source's name); cited from earlier work.
In another data set the test system is HIV-1246-1μM. As to the kind of experiment: microbe, parasite or virus in culture. The data set is classed as cell-based, HIV-1. The procedure: (§1) Briefly, MT-2 cells (2×10^4/ml) were exposed to 100 50% tissue culture infectious doses (TCID50S) of HIV-1LAI, in the presence or absence of various concentrations of drugs in 96-well microculture plates and were incubated at 37° C. for 7 days. After 100 μl of the medium was removed from each well, 3-(4,5-dimetylthiazol-2-yl)-2,5-diphenyltetrazolium bromide (MTT) solution (10 μl, 7.5 mg/ml in phosphate-buffered saline) was added to each well in the plate, followed by incubation at 37° C. for 3 h. […] All assays were performed in duplicate or triplicate. […] To determine the drug susceptibility of certain laboratory HIV-1 strains, MT-4 cells were used as target cells. In brief, MT-4 cells (10^5/ml) were exposed to 100 TCID50S of drug-resistant HIV-1 strains in the presence or absence of various concentrations of drugs and on day 7 of culture, the supernatant was harvested and the amounts of p24 Gag protein were determined. […] All assays were performed in duplicate or triplicate.
(§2) Numbers in parentheses represent n-fold changes in EC50s for each isolate compared to the EC50s for wild-type HIV-1NL4-3.

A further data set has as its system HIV-1216-P50. As to the kind of experiment: microbe, parasite or virus in culture. The data set is classed as cell-based, HIV-1. The method, then: as §1, §2
The subject of the next data set is HIV-1286-1μM. As to the kind of experiment: microbe, parasite or virus in culture. The data set is classed as cell-based, HIV-1. The method, then: as §1, §2
In a further data set the test system is HIV-1396-1μM. As to the kind of experiment: microbe, parasite or virus in culture. The data set is classed as cell-based, HIV-1. The procedure:
as §1, §2

A further data set deals with HIV-1LAI. As to the kind of experiment: drug susceptibility, MT-2 cells, MTT assay, HIV-1LAI. The data set is classed as cell-based. The method, then:
(§3) All assays were performed in duplicate or triplicate. […] All assays were performed in duplicate or triplicate.
Each selectivity index denotes a ratio of CC50 to EC50 against HIV-1LAI N.D., not done.
A general note: Tetrazolium assays rely on reduction of a dye to a coloured formazan, in cell work by metabolically active cells.

Another data set has as its target T1, HIV-1 protease (Human immunodeficiency virus type 1 group M subtype B, UniProt P04585).
T1 construct: A simple, continuous fluorometric assay for HIV protease
As to the kind of experiment: HIV protease enzyme inhibition, fluorometric assay of Toth and Marshall. The data set is classed as biochemical. The note with it: Ki, Table 2. The method, then:
(§4) The inhibitory potencies of acyclic and cyclic inhibitors were measured by the assay protocol of Toth and Marshall (Toth, M. V.; Marshall, G. R. A simple, continuous fluorometric assay for HIV protease. Int. J. Pep. Protien Res. 1990, 36, 544-55).

Data set [2] has as its system HIV-1. As to the kind of experiment: antiviral assay (IC50). The class given is cell-based. The note with it: Human immunodeficiency virus 1, Table 2; read-out: IC50. The method, then:
as §4

Data set [3] relates to HIV-1NL4-3. As to the kind of experiment: p24 Gag inhibition in MT-4 cells, HIV-1NL4-3. The class given is cell-based. The note with it: Human immunodeficiency virus 1, MT4, read-out: EC50 (μM), HIV-1NL4-3, Table 9, mean ± 1 SD. The procedure:
as §3

Data set [4] has as its system HIV-1NL4-3. As to the kind of experiment: in vitro selection of PI-resistant HIV-1 variants in MT-4 cells. The data set is classed as cell-based. The conditions noted are these: HIV-1NL4-3 in MT-4 cells, increasing drug concentrations. The source says:
The culture supernatants were harvested on day 7 and used to infect fresh MT-4 cells for the next round of culture in the presence of increasing concentrations of each drug.

A further data set can be described thus: cytotoxicity CC50. The class given is cell-based, Human. The conditions noted are these: human.
[5] abbreviates: compared to wild-type HIV-1NL4-3.

Like-named read-outs stand apart in the source and are kept apart here.

By EC50 is commonly meant the concentration giving half of the maximal effect. The term Ki denotes a dissociation constant, usually derived from enzyme kinetics or from competition with a known ligand. High values mean a looser hold on the target, low ones a stronger hold on the target. For orientation: CC50 means the concentration giving 50% cytotoxicity. Read a high CC50 as lower toxicity to the cells.

As for `COc1ccc(S(=O)(=O)N(CC(C)C)CC(O)C(Cc2ccccc2)NC(=O)OC2COC3OCCC23)cc1` (stereo not shown) [Compound 2, TMC-126], in the data set with HIV-1 [1], the IC50 is 0.0012 µM.

As to `COc1ccc2c(c1)OCC=CCCCCN(CC(O)C(Cc1ccccc1)NC(=O)OC1COC3OCCC13)S2(=O)=O` (stereo not shown) [Compound 14d], the EC50 with HIV-1246-1μM (Human immunodeficiency virus 1, MT4, read-out: EC50 (μM), HIV-1246-1 μM) was 0.37 ± 0.013 µM; in the data set on HIV-1216-P50 (Human immunodeficiency virus 1, MT4, read-out: EC50 (μM), HIV-1216-p50), 0.24 ± 0.06 µM; in the data set with HIV-1286-1μM (Human immunodeficiency virus 1, MT4, read-out: EC50 (μM), HIV-1286-1 μM), more than 1 µM; with HIV-1396-1μM (Human immunodeficiency virus 1, MT4, read-out: EC50 (μM), HIV-1396-1 μM), 0.52 ± 0.07 µM; with HIV-1LAI (Human immunodeficiency virus 1, MT2, read-out: EC50 (μM) for HIV-1LAI), 0.014 ± 0.001 µM; in the data set on HIV-1NL4-3 [3], 0.017 ± 0.005 µM. Also, in the data set with HIV-1246-1μM (setting [5]), the “n-fold change in EC50, HIV-1246-1 μM” value is on record as “(22)”. Moreover, the “n-fold change in EC50, HIV-1216-p50” value in the data set with HIV-1216-P50 (setting [5]) is recorded as “(14)”. In addition, the “n-fold change in EC50, HIV-1286-1 μM” value with HIV-1286-1μM (setting [5]) is more than 59. In addition, the “n-fold change in EC50, HIV-1396-1 μM” value in the data set on HIV-1396-1μM (setting [5]) is listed as “(31)”. The “Selectivity Index” value in the data set on HIV-1LAI (ratio of CC50 to EC50 against HIV-1LAI) was 3,200. On HIV-1 protease, this molecule returned a Ki of less than 0.001 µM. Besides, the IC50 with HIV-1 [2] is less than 0.1 µM. Also, the “passage by which HIV-1 variants replicating in the presence of 1 μM drug emerged” value with HIV-1NL4-3 [4] is listed as 33 passages. Further, the CC50 in the data set “cytotoxicity CC50” turned out to be 44.9 ± 4.1 µM.
